Reference: paper PMC11585924, “Direct measurements of neurosteroid binding to specific sites on GABAA receptors” (British journal of pharmacology, 2024)
Entries after “also recorded” stand apart in the source; their conditions may differ.

How the values were obtained:
Assay type in all cases: binding
ELIC-α1GABAAR [1] = biological target: T1, ELIC-α1GABAAR (Homo sapiens, UniProt P14867)
Procedure: (§1) One hundred microlitres of ELIC-α1GABAAR (0.3 μM) was transferred into a 50-μl window quartz cuvette maintained at 4°C, and NaI was added to the protein sample to a final concentration of 100 mM and incubated for 10 min. MQ290 was then added at a concentration of 3 μM for 3α-OH NS inhibition curves or 1 μM for 3β-OH NS inhibition curves and incubated for 30 min. One-microlitre aliquots of 3α-OH and 3β-OH NS from their corresponding stock solutions (prepared in Buffer A + 0.015% DDM) were added to achieve concentrations between 0.01 and 30 μM. The background emission spectra of ligands alone were obtained for each ligand concentration in the absence of protein and were subtracted from the protein-ligand emission spectra to yield background subtracted data. The MQ290 FRET spectra for different ligand concentrations were estimated using the method described above. The 370-nm intensities of the FRET spectra were plotted against ligand concentration and fitted to a four-parameter logistic curve to obtain IC50 data (GraphPad Software version 9.4.0, San Diego, CA). Ki values were calculated using the relationship: Ki=IC50/1+LT/Kd
where LT is the concentration of MQ290 and Kd was determined from the MQ290 binding curve.

ELIC-α1^W246LGABAAR = ELIC-α1^W246LGABAAR (Homo sapiens, UniProt P14867, W273L); test: Inhibition of MQ290 FRET by NS in W246L receptors; settings: 30 μM NS; MQ290 1 μM
Procedure: as §1

ELIC-α1GABAAR [2] = biological target: T1, ELIC-α1GABAAR; test: KK200 photolabelling competition, middle-down MS; settings: 3 μM KK200, 30 μM competitor
Procedure: The synthesis of the NS photolabelling reagent KK200 is detailed in previous reports ([W. W. L. Cheng et al., 2018]; [Jiang et al., 2016]). […] The samples were then irradiated in a quartz cuvette for 5 min, using a photoreactor emitting light at >320 nm ([Germann et al., 2021]). Sample preparation for tryptic digestion and analysis by LC–MS was performed as previously described ([Sugasawa et al., 2019]). Peptides were separated on a home-packed PLRP-S (Agilent, Santa Clara, CA, USA) column (10 cm × 75 μm, 300 Å) using a 135-min gradient from 10% to 90% acetonitrile and introduced to an Orbitrap-Elite mass spectrometer (Thermo Fisher Scientific, Waltham, MA, USA; RRID:SCR_020548) at 800 nl·min^−1 with a nanospray source. MS acquisition was set as an MS1 Orbitrap scan (resolution of 60,000) followed by top 20 MS2 Orbitrap scans (resolution of 15,000) using data-dependent acquisition and exclusion of singly charged precursors. Fragmentation was performed using high-energy dissociation with normalized energy of 35%. Analysis of data sets was performed using Xcalibur (Thermo Fisher Scientific, Waltham, MA, USA; RRID: SCR_014593) to manually search for TM1, TM2, TM3 or TM4 tryptic peptides with or without NS photolabelling modifications. Photolabelling efficiency was estimated by generating extracted chromatograms of unlabelled and labelled peptides, determining the area under the curve, and calculating the (area of labelled peptide/(area of unlabelled + area of labelled peptide). MS2 spectra of photolabelled TMD peptides were analysed by manual assignment of fragment ions with and without photolabelling modification.

T1 sequence (P14867 other isoform, or with tags, fused parts or gaps): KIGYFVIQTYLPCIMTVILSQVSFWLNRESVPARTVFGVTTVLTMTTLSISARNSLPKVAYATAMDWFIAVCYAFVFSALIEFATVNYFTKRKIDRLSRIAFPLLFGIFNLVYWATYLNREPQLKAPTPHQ
T1 sequence (P0C7B7 1-198, further chain): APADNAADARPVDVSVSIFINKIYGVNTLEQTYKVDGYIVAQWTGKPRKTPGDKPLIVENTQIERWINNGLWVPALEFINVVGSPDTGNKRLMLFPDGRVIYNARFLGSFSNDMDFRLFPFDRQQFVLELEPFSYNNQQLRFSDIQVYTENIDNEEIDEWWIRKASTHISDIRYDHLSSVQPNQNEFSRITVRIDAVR
Chain of ELIC-α1^W246LGABAAR (P14867 other isoform, or with tags, fused parts or gaps W273L): as the sequence (P14867 other isoform, or with tags, fused parts or gaps) above, with W25L counted along it
Chain of ELIC-α1^W246LGABAAR (P0C7B7 1-198, further chain): as the sequence (P0C7B7 1-198, further chain) above

CC(=O)[C@H]1CC[C@H]2[C@@H]3CC[C@H]4C[C@@H](O)CC[C@]4(C)[C@H]3CC[C@]12C [Epi-AlloP, epi-allopregnanolone] was tested, and the Hill slope (ELIC-α1GABAAR [1]; 3β-OH NS, MQ290 1 μM) was −0.68 ± 0.45, the “mechanism of inhibition of MQ290 binding” value (ELIC-α1GABAAR [1]; MQ290 binding curves with 3×Kd and 30 μM NS) was “allosteric mechanism of inhibition” and the “inhibition of remaining MQ290 FRET signal in W246L” value (ELIC-α1^W246LGABAAR) was “reduced by neither”. The “prevention of KK200 photolabelling of TM3 (Y309)” value (ELIC-α1GABAAR [2]) was “not significantly different than control; also recorded: did not”.
